Results reported in patent US20060229354A1, “Use of Isatin in stimulating red blood cell production and treatment of anemia” (priority 2005, published 2006).

Key:
[1] = tested on: UT7/EPO cells; experiment: MTT assay, EPO-deprived UT7/EPO cells; assay type: cell-based; conditions: Isatin treatment
Description: UT7/EPO cells were cultured for 4 hours and then placed in triplicate in 96 well microtiter plates. The cell was treated with Isatin or EPO or PBS and cultured in 100 ul of DMEM, 10% FCS, overnight. The next day, media was removed and replace MTT assay solution. The plates were incubated for and addition 48 hours. And then cell viability was determined using a MTT assay, as described by manufacture (Sigma).

[2] = tested on: RPM18226 cells; experiment: Melphalan-induced apoptosis in RPM18226 cells; assay type: cell-based; conditions: data not shown
[3] = tested on: STAT5; experiment: Immunoprecipitate analysis of STAT5 phosphorylation in UT7/EPO cells; assay type: cell-based; conditions: FIG. 6
Excerpt: FIG. 6 illustrates the results of Immunoprecipiate analysis of the effects of EPO and Isatin on STAT5 phosphorylation in UT7/EPO Cells.
Activation of EPO-R by EPO is predominately mediated by JAK signaling pathway, and STAT5 protein is the major component involving in this signal transduction. We studied the activity of STAT5 in response to Isatin treatment.

[4] = tested on: JAK2-associated EPOR; experiment: Immunoprecipitate study of phosphorylation of JAK2-associated EPOR in UT7/EPO cells; assay type: cell-based
Description: Referring to FIG. 5B, the Isatin-induced EPO-R phosphorylation occurs 5 minutes after the treatment and sustains beyond 1 hour afterwards.

[5] = tested on: UT7/EPO cells; experiment: DNA Ladder Detection Assay, EPO-deprived UT7/EPO cells; assay type: cell-based; conditions: Isatin treatment
Description: 10^6 UT7/EPO cells, after treated with either Isatin or EPO or PBS, was lysed with 150 ul hypotonic lysis buffer (10 mM EDTA, 0.5% Triton X-100 in […] Tris-HCl, pH 7.4) for 15 minutes on ice and were precipitated with 2.5% polyethylene glycerol and 1 M NaCl for 15 minutes at 4 C. After centrifugation at 16,000 rpm for 10 minutes at room temperature, the supernatant was incubated in the presence of proteinase K (0.3 g/L) at 37° C. for one hour and precipitated with isopropanol at −20° C. After centrifugation, each cell pellet was dissolved in 10 ul of Tris-EDTA (pH 7.6) and electrophoresed on a 1.5% agarose gell containing ethidium bromide. Ladder formation of oligonucleosomal DNA was detected under ultraviolet.

[6] = tested on: MO7E cells; experiment: Apoptosis Assay (AA), GM-CSF-deprived MO7E cells; assay type: cell-based; conditions: FIG. 4
[7] = tested on: UT7/EPO cells; experiment: Calcein-AM release assay, EPO-deprived UT7/EPO cells; assay type: cell-based; conditions: Isatin treatment
Description: Calcein-AM was purchased from Molecular Probes (Eugene) as a 1 mg/ml solution in dry dimethyl sulfoxide. UT7/EPO cells were resuspended in complete medium at a final concentration of 10^6/ml and incubated with 15 uM calcein-AM for 30 mininutes at 37° C. with occasional shaking. After two washes in the same way as the ^51Cr assay in V bottom 96-well microtiter plates, with E:T ratios ranging from 50:1 to 0.5:1, in triplicate, and with at least six replicate wells for spontaneous and maximum release. Various numbers of UT7/EPO cells treated with Isatin or EPO or with untreated cells were seeded as follows. After incubation 37° C. in 5% CO2 for 4 hours, 75 ul of each supernatant was harvested and transferred into new plates. The samples were measured using a Sepctramax Gemini dual-scanning microplate spectrofluoimeter. Data were expressed as arbitrary fluorescent unites (AFU). Percent lysis was calculated with the same formula used for the ^51Cr for the ^51CR assay.

[8] = tested on: UT7/EPO cells; experiment: Viable cell counts (trypan blue staining), EPO-deprived UT7/EPO cells; assay type: cell-based; conditions: Isatin treatment
[9] = tested on: UT7/EPO cells; experiment: Apoptosis Assay (AA), EPO-deprived UT7/EPO cells; assay type: cell-based
Description: UT7/EPO cells treated by Isatin or EPO or PBS was plated in triplicate in 96-well microtiter plates in 50 μl of culture medium and incubated for different time course. The cell apoptosis products were determined by Florence-probe. The cell apoptosis rate was calculated by positive apoptosis fragments.
We used several assays as mentioned in Materials and Methods section to evaluate the pharmacological activity of Isatin compound by examining the growth or the apoptosis of UT7/EPO cells. The cells used in AA assay are UT7/EPO. UT7/EPO cells were deprived from UT7 by elegant genetic engineering. As a result, the survival and growth of UT7/EPO cells rely on the stimulation of EPO-R by the exogenous EPO treatment. On the other hand, without the support of the exogenous EPO, the UT7/EPO cells will die. […] We used different assays to measure the level of apoptosis in UT7/EPO cells. If the tested compounds have erythropoietic agonist effect, the level of apoptosis in UT7/EPO cells should decrease in response to the treatment. […] Compared to EPO, higher dose of Isatin was required to generate the same extent of inhibition.

[10] = tested on: freshly isolated peripheral blood mononuclear cells; experiment: Melphalan-induced apoptosis in peripheral blood mononuclear cells; assay type: cell-based; conditions: data not shown
[11] = initial phase of therapy; cited from earlier work
[12] = refrigerator between 2° C. and 8° C.; cited from earlier work

Molecule | MTT (cell viability) [1] | inhibition of Melphalan-induced apoptosis in RPM18226 cells [2] | STAT5 activity (phosphorylation) during treatment [3] | duration of EPO-R phosphorylation after treatment ([4]; FIG. 5B) [h] | time of onset of EPO-R phosphorylation after treatment ([4]; FIG. 5B) [min] | phosphorylation of EPO-R through JAK2 mediated signaling pathway ([4]; FIGS. 5A and 5B) | phosphorylation of EPO-R, Isatin used together with EPO ([4]; Isatin together with EPO) | DNA Ladder Assay [5] | inhibition of GM-CSF withdrawal-induced apoptosis in MO7E cells [6] | Calcein (cell viability) [7] | Viable Cell Counts (trypan blue staining) [8] | IC50 ([9]; Homo sapiens, UT-7/Epo, read-out: IC50 for inhibiting apoptosis in UT7/EPO cells) [µM] | effect of Isatin used together with EPO on apoptosis inhibition / EPO-R activity ([9]; Isatin together with EPO, UT7/EPO cells, FIG. 3) | AA (apoptosis) ([9]; Isatin treatment, EPO-deprived UT7/EPO cells) | erythropoietic stimulation effect compared with EPO ([9]; UT7/EPO cells, comparison with EPO) | apoptosis inhibition on UT7/EPO cells, concentration dependence ([9]; increasing Isatin concentration, FIGS. 2A and 2B) | inhibition of Melphalan-induced apoptosis in freshly isolated peripheral blood mononuclear cells [10] | increase in the hematocrit [11] [% per week] | shelf life of multi-dose vials in refrigerator after the initial dose [12]
O=C1Nc2ccccc2C1=O [Isatin, Indole-2,3-dione] | ↑ | no noted inhibition | no change in STAT5 activity | > 1 | 5 | induces phosphorylation of EPO-R | significantly enhance the phosphorylation of EPO-R | ↓ | no noted inhibition | ↑ | ↑ | ~10 | synergistic effect | ↓ | weaker than that of EPO | steadily enhanced when the concentration of Isatin was increased | no noted inhibition | – | –
Epoetin alfa: recombinant EPO protein developed by Amgen, approved by FDA for the treatment of anemia | – | – | – | – | – | – | – | – | – | – | – | – | – | – | – | – | – | 2 | about 20 days
